Entries after “also recorded” stand apart in the source; their conditions may differ.
Tests used:
[1] = system: L5178Y target cells; test: MLTC assay of cytotoxic lymphocyte (CTL) activity, L5178Y target cells; type: cell-based, mouse, DBA/2; conditions: for CTL activity (in words): with or without stimulator cells, any E/T ratio
Source text: A mixed lymphocyte tumor culture (MLTC) immunoassay, used to determine the cytotoxic lymphocyte (CTL) activity employs lymphocytes from either immunized (sensitized) mice or DBA/2 tumor dormant state animals in various stages of the tumor dormant state (TDS). The assay employs L5178Y target cells labeled with ^51 Chromium and effector cells (sensitized lymphocytes) from the above-mentioned sources. Effector-target cell ratios will vary with different experimental conditions and may or may not include irradiated stimulator L5178Y cells. Results are expressed as % lysis of target cells based on ratio of cpm of test group over cpm of total release (maximum) both of which are corrected for spontaneous release of ^51 Cr. The assay can be performed as an 8 or 18 hour release assay.
Ten days later the resultant tumor nodule, about 1 cm in size, is surgically excised. If the excision was successful, no subcutaneous tumors develop at the site of implantation. […] These mice are considered to be in the tumor dormant state. […]
DBA/2 mice in the early stage of TDS, prior to challenge with viable L5178Y tumor cells, were used to measure the effect of Cpd. 2 on CTL activity. Cpd. 2, 0.1, 1.0, 10 or 100 μg/ml, or just buffer was added in 100 ul volumes to MLTC microculture wells containing washed spleen lymphocytes from DBA/2 mice, effector, and L5178Y target cells at varying ^E /T ratios. The MLTC reaction was performed in the presence or absence of irradiated L5178Y stimulator cells. […]

[2] = system: spleen lymphocytes; test: In vitro lymphocyte stimulation assay, C57BL/6 spleen lymphocytes; type: cell-based, mouse
Description: The purpose of this assay is to challenge lymphocytes in microcultures with one or more polyclonal mitogens at concentrations that will induce mitogenesis within 72 hours of stimulation.
In the mouse model, spleens are removed from different strains of mice and the spleen cells are teased free and suspended in RPMI-1640 tissue culture medium at a concentration of usually […]. These cells are dispensed at a concentration of 5.0×10^5 cells per microculture well in a 96 well flat bottom 96 well tissue culture plate. All testing of the compounds of this invention or mitogens are done in replicates of 10. The cells are then treated with PHA, Con-A, specific antigens, or buffer only. If in vitro testing is done, varying concentrations of the compounds of this invention or buffer only are added to the cells as well. After treatment with the mitogens and/or compounds of this invention, the cells are incubated for 72 hours. The response of these cells to mitogens and/or the compounds of this invention is assessed using ^14 C-thymidine labeling on the fourth day at a concentration of 0.01 μCi/well. The labeled cells are harvested using a lymphocyte harvestor and placed onto fibrous paper discs. A scintillation cocktail is added to vials containing the discs and the results are obtained using a LKB-liquid scintillation counter (Model 1216/Rackbeta II). The data is expressed as a ratio of the cpm of the mitogen stimulated group to the control (nonmitogen) treated group=lymphocyte stimulation index (LSI).
The lymphocyte stimulation assay may be performed directly on spleen cells obtained from various strains of mice not treated with the compounds of this invention or on lymphocytes obtained from human […]. […] Alternatively, the mice may be treated in vivo with the compounds of this invention by intraperitoneal multi-dose schedules, followed by sacrifice and harvesting spleen lymphocytes. These cells are then tested for their response to polyclonal mitogens or specific antigens used to immunize the mice. In this system however, no additional compound is added to the in vitro lymphocyte stimulation assay system.
An in vitro lymphocyte stimulation assay is performed directly on normal spleen lymphocytes removed from five normal C57BL/6 mice, using concentrations of Cpd. […] Following three days of incubation the assay is completed.
An in vitro lymphocyte stimulation assay was performed using spleen lymphocytes from normal C57BL/6 mice. The lymphocytes were treated with either 1, 5, 10, 50 or 100 μg/well of Cpd. 1 or buffer.
Cpd. 2 was tested using normal spleen lymphocytes from C57BL/6 mice. A lymphocyte stimulation assay was conducted using either 1, 5, 10, 50, or 100 μg/well […] or just buffer.
Spleen cells from C57BL/6 mice were treated, in vitro, with the crystallizing reagents, succinic acid and succinimide. Since these compounds are spontaneously released from the molecular complex in solution at a molar ratio of 2 moles of Cpds. 1, 2, or 3 per mole of the crystalline reagent, these reagents were treated in the lymphocyte stimulation assay at proper molar concentrations.
The compound of example 3, Cpd. 3, was used to treat C57BL/6 spleen lymphocytes in vitro. The lymphocytes were treated with either 1, 5, 10, 50, or 100 μg/well of Cpd. 3 or just buffer and then a lymphocyte stimulation assay was performed.

2-furylbutyrolactone:succinimide [Cpd. 2]
% Lysis ([1]; 0.1 μg/ml, E/T 12.5:1, pre-challenge TDS, with stimulator cells): 47.5% | % Lysis ([1]; 0.1 μg/ml, E/T 12.5:1, pre-challenge TDS, without stimulator cells): 16.5% | % Lysis ([1]; 0.1 μg/ml, E/T 25:1, pre-challenge TDS, with stimulator cells): 64.0% | % Lysis ([1]; 0.1 μg/ml, E/T 25:1, pre-challenge TDS, without stimulator cells): 29.5% | % Lysis ([1]; 0.1 μg/ml, E/T 50:1, pre-challenge TDS, with stimulator cells): 69.5% | % Lysis ([1]; 0.1 μg/ml, E/T 50:1, pre-challenge TDS, without stimulator cells): 43.5% | % Lysis ([1]; 0.1 μg/ml, E/T 100:1, pre-challenge TDS, with stimulator cells): 74.5% | % Lysis ([1]; 0.1 μg/ml, E/T 100:1, pre-challenge TDS, without stimulator cells): 48.0% | % Lysis ([1]; 1 μg/ml, E/T 12.5:1, pre-challenge TDS, with stimulator cells): 58.0% | % Lysis ([1]; 1 μg/ml, E/T 25:1, pre-challenge TDS, with stimulator cells): 69.5% | % Lysis ([1]; 1 μg/ml, E/T 50:1, pre-challenge TDS, with stimulator cells): 72.5% | % Lysis ([1]; 1 μg/ml, E/T 100:1, pre-challenge TDS, with stimulator cells): 75.5% | % Lysis ([1]; 10 μg/ml, E/T 12.5:1, pre-challenge TDS, with stimulator cells): 58.5% | % Lysis ([1]; 10 μg/ml, E/T 12.5:1, pre-challenge TDS, without stimulator cells): 26.5% | % Lysis ([1]; 10 μg/ml, E/T 25:1, pre-challenge TDS, with stimulator cells): 72.5% | % Lysis ([1]; 10 μg/ml, E/T 25:1, pre-challenge TDS, without stimulator cells): 40.0% | % Lysis ([1]; 10 μg/ml, E/T 50:1, pre-challenge TDS, with stimulator cells): 72.5% | % Lysis ([1]; 10 μg/ml, E/T 50:1, pre-challenge TDS, without stimulator cells): 56.5% | % Lysis ([1]; 10 μg/ml, E/T 100:1, pre-challenge TDS, with stimulator cells): 73.5% | % Lysis ([1]; 10 μg/ml, E/T 100:1, pre-challenge TDS, without stimulator cells): 61.5% | % Lysis ([1]; 100 μg/ml, E/T 12.5:1, pre-challenge TDS, with stimulator cells): 47.0% | % Lysis ([1]; 100 μg/ml, E/T 25:1, pre-challenge TDS, with stimulator cells): 65.0% | % Lysis ([1]; 100 μg/ml, E/T 50:1, pre-challenge TDS, with stimulator cells): 73.5% | % Lysis ([1]; 100 μg/ml, E/T 100:1, pre-challenge TDS, with stimulator cells): 78.5% | CTL activity (in words) ([1]; pre-challenge TDS): increase in CTL activity | Lymphocyte Stimulation Index, Con-A ([2]; 1 μg/well): 147 | Lymphocyte Stimulation Index, Control (no mitogen) ([2]; 1 μg/well): .92 | Lymphocyte Stimulation Index, PHA ([2]; 1 μg/well): 25.4 | Lymphocyte Stimulation Index, Con-A ([2]; 5 μg/well): 148 | Lymphocyte Stimulation Index, Control (no mitogen) ([2]; 5 μg/well): 1.2 | Lymphocyte Stimulation Index, PHA ([2]; 5 μg/well): 29.8 | Lymphocyte Stimulation Index, Con-A ([2]; 10 μg/well): 164 | Lymphocyte Stimulation Index, Control (no mitogen) ([2]; 10 μg/well): 1.1 | Lymphocyte Stimulation Index, PHA ([2]; 10 μg/well): 38.8 | Lymphocyte Stimulation Index, Con-A ([2]; 50 μg/well): 218 | Lymphocyte Stimulation Index, Control (no mitogen) ([2]; 50 μg/well): .80 | Lymphocyte Stimulation Index, PHA ([2]; 50 μg/well): 45.8 | Lymphocyte Stimulation Index, Con-A ([2]; 100 μg/well): 144 | Lymphocyte Stimulation Index, Control (no mitogen) ([2]; 100 μg/well): .49 | Lymphocyte Stimulation Index, PHA ([2]; 100 μg/well): 3.83 | effect on Con-A response (in words) ([2]; in vitro, Con-A): the 200 μg/well dose had a stimulatory effect; also recorded: the 400 μg/well doses had an anti-proliferative effect

Cc1ccc(C2(O)C(=O)OC3C(O)COC32O)o1.Cc1ccc(C2(O)C(=O)OC3C(O)COC32O)o1.O=C1CCC(=O)O1 (stereo not shown) [Cpd. 1, 2-furylbutyrolactone:succinic anhydride]
% Lysis ([1]; 0.001 μg/ml, E/T 10:1, TDS, without stimulator cells): 3.9% | % Lysis ([1]; 0.01 μg/ml, E/T 10:1, TDS, without stimulator cells): 3.5% | % Lysis ([1]; 0.01 μg/ml, E/T 100:1, TDS, without stimulator cells): 26.0% | % Lysis ([1]; 0.1 μg/ml, E/T 10:1, TDS, without stimulator cells): 3.5% | % Lysis ([1]; 0.1 μg/ml, E/T 30:1, TDS, with stimulator cells): 51.0% | % Lysis ([1]; 0.1 μg/ml, E/T 100:1, TDS, with stimulator cells): 79.0% | % Lysis ([1]; 1.0 μg/ml, E/T 10:1, TDS, without stimulator cells): 4.6% | % Lysis ([1]; 1.0 μg/ml, E/T 30:1, TDS, with stimulator cells): 46.0% | % Lysis ([1]; 1.0 μg/ml, E/T 30:1, TDS, without stimulator cells): 20.0% | % Lysis ([1]; 10 μg/ml, E/T 6.25:1, TDS, without stimulator cells): .7% | % Lysis ([1]; 10 μg/ml, E/T 10:1, TDS, without stimulator cells): 4.6% | % Lysis ([1]; 10 μg/ml, E/T 12.5:1, TDS, without stimulator cells): 6.9% | % Lysis ([1]; 10 μg/ml, E/T 25:1, TDS, with stimulator cells): 72.0% | % Lysis ([1]; 10 μg/ml, E/T 25:1, TDS, without stimulator cells): 8.1% | % Lysis ([1]; 10 μg/ml, E/T 30:1, TDS, with stimulator cells): 42.0% | % Lysis ([1]; 100 μg/ml, E/T 6.25:1, TDS, without stimulator cells): 6.1% | % Lysis ([1]; 100 μg/ml, E/T 10:1, TDS, without stimulator cells): 8.6% | % Lysis ([1]; 100 μg/ml, E/T 100:1, TDS, without stimulator cells): 42.0% | % Lysis ([1]; E + D, E/T 10:1, TDS effectors, no stimulators): 9.0% | enhancement of CTL activity (in words) ([1]; L5178Y target, TDS effectors with stimulator cells): significant specific enhancement of CTL activity of effector cells in the presence of stimulator cells | % Lysis ([1]; N + S + D, E/T 30:1, normal spleen cells + stimulators): -9.7% | % Lysis ([1]; N + S + D, E/T 100:1, normal spleen cells + stimulators): -9.5% | CTL activity (in words) ([1]; TDS 10 days after challenge): significant increase in CTL activity | Lymphocyte Stimulation Index, Control (no mitogen) ([2]; 5 μg/well): 1.8 | Lymphocyte Stimulation Index, Control (no mitogen) ([2]; 50 μg/well): .20 | Lymphocyte Stimulation Index, Control (no mitogen) ([2]; 100 μg/well): .20 | Lymphocyte Stimulation Index, Control (no mitogen) ([2]; .001 μg/well): 3.8 | Lymphocyte Stimulation Index, Control (no mitogen) ([2]; .01 μg/well): 3.2 | Lymphocyte Stimulation Index, Control (no mitogen) ([2]; .1 μg/well): 3.2

Reference: US4518611A, “2-Furylbutyrolactone modulation of the immune system in mammals” (priority 1983, dated 1985)
